{"source": "patent US6365621B1", "about": "“Remedies or preventives for intractable epilepsy” (Pharmaceutical Co., Ltd., priority 1998, dated 2002)", "test_system": "kainate-induced amygdala seizures", "experiment": "Local cerebral glucose metabolism during kainate-induced amygdala seizures ([14C]deoxyglucose autoradiography)", "assay_type": "in vivo, rat", "parameters": "key to Effect on local cerebral glucose metabolism rate: → : no change; →↓ : decreased in a low degree; ↓ : decreased in a moderate degree; ↓↓ : decreased in a high degree", "settings": "for Local glucose metabolism rate: average ± standard error", "source_text": "[Method for measuring cerebral glucose metabolism] Cannulas for injection of kainic acid were inserted in an assigned position of the left side of the amygdala of 18 Wistar male rats and fixed through the same procedure as described in Example I-1. Seven days after operation, polyethylene catheters were set and fixed to the femoral artery and vein of one side under halothane anesthesion, and the lower half of the body of each rat were put in plaster so as to prevent removal of the catheter. Upon awakening from narcotism, the same kainic acid solution as described in I-1 (1 μL) was injected through the cannula so as to induce seizures. After elapse of 90 minutes from injection of kainic acid, when limbic system seizures were in status epilepticus, 50, 100, or 200 mg/kg of nefiracetam was intravenously injected, whereas saline was injected into rats of the control group. After 60 minutes, 25 μCi of [^14C] deoxyglucose was intravenously injected. After the tracer was injected, blood was continuously collected from the artery for 45 minutes. When collection was finished, heads were cut off. Brains were extirpated immediately and instantly frozen in by hexane (−25° C.) cooled by dry ice. The frozen brain was sliced in a cryostat (−20° C.) so as to produce coronary, serial-frozen sections having a thickness of 20 μm. Subsequently, the sections were dried and put on high-speed X-ray film with a [^14C] standard, followed by seven-day-exposure in a cassette to thereby obtain an autoradiogram. The blood samples collected from the artery were centrifuged so as to collect plasma, the [^14C] radioactivity was measured by use of a liquid scintillation counter, and glucose concentration in plasma was measured.\nThe optical density of the intracerebral structure of each section was measured from the autoradiogram by use of a densitometer, and a glucose utilization rate of each intracerabral structure was calculated by use of the formula of Sokoloff (Sokoloff, L., Reivich, M., Kennedy, C., et al., J. Neurochemistry, 28: 897-916, 1977) based on [^14C] radioactivity and glucose concentration in plasma. The obtained data were compared quantitatively and statistically with those of the control group, through the Mann-Whitney U-test.", "key": {"[1]": {"settings": "Amygdala, focal side, 100 mg/kg i.v."}, "[2]": {"settings": "Amygdala, non-focal side, 100 mg/kg i.v."}, "[3]": {"settings": "Brain stem reticular formation, focal side, 100 mg/kg i.v."}, "[4]": {"settings": "Brain stem reticular formation, non-focal side, 100 mg/kg i.v."}, "[5]": {"settings": "Candatum-putamen, focal side, 100 mg/kg i.v."}, "[6]": {"settings": "Candatum-putamen, non-focal side, 100 mg/kg i.v."}, "[7]": {"settings": "Cerebellar cortex, focal side, 100 mg/kg i.v."}, "[8]": {"settings": "Cerebellar cortex, non-focal side, 100 mg/kg i.v."}, "[9]": {"settings": "Corpus callosum, focal side, 100 mg/kg i.v."}, "[10]": {"settings": "Corpus callosum, non-focal side, 100 mg/kg i.v."}, "[11]": {"settings": "Frontal lobe cortex, focal side, 100 mg/kg i.v."}, "[12]": {"settings": "Frontal lobe cortex, non-focal side, 100 mg/kg i.v."}, "[13]": {"settings": "Hypothalamaus, focal side, 100 mg/kg i.v."}, "[14]": {"settings": "Hypothalamaus, non-focal side, 100 mg/kg i.v."}, "[15]": {"settings": "Occipital lobe cortex, focal side, 100 mg/kg i.v."}}}
{"smiles": "Cc1cccc(C)c1NC(=O)CN1CCCC1=O", "note": "[nefiracetam, N-(2,6-dimethylphenyl)-2-(2-oxo-1-pyrrolidinyl)acetamide]", "values": [{"measurement": "Regions with promoted glucose metabolism", "setting": "200 mg/kg i.v.", "result": "the amygdala on the focal side is the only region where the metabolism is prompted"}, {"measurement": "Effect on local cerebral glucose metabolism rate", "setting": "Amygdala, focal side, 50 mg/kg i.v.", "result": "→"}, {"measurement": "Effect on local cerebral glucose metabolism rate", "setting": "[1]", "result": "→"}, {"measurement": "Local glucose metabolism rate", "setting": "[1]", "result": "201 ± 4.5", "unit": "µmol/100 g/min"}, {"measurement": "Effect on local cerebral glucose metabolism rate", "setting": "Amygdala, focal side, 200 mg/kg i.v.", "result": "↓"}, {"measurement": "Effect on local cerebral glucose metabolism rate", "setting": "Amygdala, non-focal side, 50 mg/kg i.v.", "result": "→"}, {"measurement": "Effect on local cerebral glucose metabolism rate", "setting": "[2]", "result": "↓↓"}, {"measurement": "Local glucose metabolism rate", "setting": "[2]", "result": "66.2 ± 3.8", "unit": "µmol/100 g/min"}, {"measurement": "Effect on local cerebral glucose metabolism rate", "setting": "Amygdala, non-focal side, 200 mg/kg i.v.", "result": "↓↓"}, {"measurement": "Effect on local cerebral glucose metabolism rate", "setting": "Brain stem reticular formation, focal side, 50 mg/kg i.v.", "result": "→"}, {"measurement": "Effect on local cerebral glucose metabolism rate", "setting": "[3]", "result": "→↓"}, {"measurement": "Local glucose metabolism rate", "setting": "[3]", "result": "52.9 ± 3.5", "unit": "µmol/100 g/min"}, {"measurement": "Effect on local cerebral glucose metabolism rate", "setting": "Brain stem reticular formation, focal side, 200 mg/kg i.v.", "result": "↓"}, {"measurement": "Effect on local cerebral glucose metabolism rate", "setting": "Brain stem reticular formation, non-focal side, 50 mg/kg i.v.", "result": "→"}, {"measurement": "Effect on local cerebral glucose metabolism rate", "setting": "[4]", "result": "↓"}, {"measurement": "Local glucose metabolism rate", "setting": "[4]", "result": "49.6 ± 3.3", "unit": "µmol/100 g/min"}, {"measurement": "Effect on local cerebral glucose metabolism rate", "setting": "Brain stem reticular formation, non-focal side, 200 mg/kg i.v.", "result": "↓"}, {"measurement": "Effect on local cerebral glucose metabolism rate", "setting": "Candatum-putamen, focal side, 50 mg/kg i.v.", "result": "→"}, {"measurement": "Effect on local cerebral glucose metabolism rate", "setting": "[5]", "result": "→"}, {"measurement": "Local glucose metabolism rate", "setting": "[5]", "result": "207 ± 16.5", "unit": "µmol/100 g/min"}, {"measurement": "Effect on local cerebral glucose metabolism rate", "setting": "Candatum-putamen, focal side, 200 mg/kg i.v.", "result": "↓"}, {"measurement": "Effect on local cerebral glucose metabolism rate", "setting": "Candatum-putamen, non-focal side, 50 mg/kg i.v.", "result": "→↓"}, {"measurement": "Effect on local cerebral glucose metabolism rate", "setting": "[6]", "result": "↓↓"}, {"measurement": "Local glucose metabolism rate", "setting": "[6]", "result": "73.1 ± 2.5", "unit": "µmol/100 g/min"}, {"measurement": "Effect on local cerebral glucose metabolism rate", "setting": "Candatum-putamen, non-focal side, 200 mg/kg i.v.", "result": "↓↓"}, {"measurement": "Effect on local cerebral glucose metabolism rate", "setting": "Cerebellar cortex, focal side, 50 mg/kg i.v.", "result": "→"}, {"measurement": "Effect on local cerebral glucose metabolism rate", "setting": "[7]", "result": "→"}, {"measurement": "Local glucose metabolism rate", "setting": "[7]", "result": "47.2 ± 2.5", "unit": "µmol/100 g/min"}, {"measurement": "Effect on local cerebral glucose metabolism rate", "setting": "Cerebellar cortex, focal side, 200 mg/kg i.v.", "result": "→"}, {"measurement": "Effect on local cerebral glucose metabolism rate", "setting": "Cerebellar cortex, non-focal side, 50 mg/kg i.v.", "result": "→"}, {"measurement": "Effect on local cerebral glucose metabolism rate", "setting": "[8]", "result": "↓"}, {"measurement": "Local glucose metabolism rate", "setting": "[8]", "result": "46.1 ± 2.1", "unit": "µmol/100 g/min"}, {"measurement": "Effect on local cerebral glucose metabolism rate", "setting": "Cerebellar cortex, non-focal side, 200 mg/kg i.v.", "result": "→"}, {"measurement": "Effect on local cerebral glucose metabolism rate", "setting": "Corpus callosum, focal side, 50 mg/kg i.v.", "result": "→"}, {"measurement": "Effect on local cerebral glucose metabolism rate", "setting": "[9]", "result": "→"}, {"measurement": "Local glucose metabolism rate", "setting": "[9]", "result": "21.9 ± 1.1", "unit": "µmol/100 g/min"}, {"measurement": "Effect on local cerebral glucose metabolism rate", "setting": "Corpus callosum, focal side, 200 mg/kg i.v.", "result": "→"}, {"measurement": "Effect on local cerebral glucose metabolism rate", "setting": "Corpus callosum, non-focal side, 50 mg/kg i.v.", "result": "→"}, {"measurement": "Effect on local cerebral glucose metabolism rate", "setting": "[10]", "result": "→"}, {"measurement": "Local glucose metabolism rate", "setting": "[10]", "result": "21.1 ± 1.1", "unit": "µmol/100 g/min"}, {"measurement": "Effect on local cerebral glucose metabolism rate", "setting": "Corpus callosum, non-focal side, 200 mg/kg i.v.", "result": "→"}, {"measurement": "Effect on local cerebral glucose metabolism rate", "setting": "Frontal lobe cortex, focal side, 50 mg/kg i.v.", "result": "→"}, {"measurement": "Effect on local cerebral glucose metabolism rate", "setting": "[11]", "result": "↓"}, {"measurement": "Local glucose metabolism rate", "setting": "[11]", "result": "81.8 ± 5.7", "unit": "µmol/100 g/min"}, {"measurement": "Effect on local cerebral glucose metabolism rate", "setting": "Frontal lobe cortex, focal side, 200 mg/kg i.v.", "result": "↓"}, {"measurement": "Effect on local cerebral glucose metabolism rate", "setting": "Frontal lobe cortex, non-focal side, 50 mg/kg i.v.", "result": "→"}, {"measurement": "Effect on local cerebral glucose metabolism rate", "setting": "[12]", "result": "↓"}, {"measurement": "Local glucose metabolism rate", "setting": "[12]", "result": "65.7 ± 3.6", "unit": "µmol/100 g/min"}, {"measurement": "Effect on local cerebral glucose metabolism rate", "setting": "Frontal lobe cortex, non-focal side, 200 mg/kg i.v.", "result": "↓"}, {"measurement": "Effect on local cerebral glucose metabolism rate", "setting": "Hypothalamaus, focal side, 50 mg/kg i.v.", "result": "→"}, {"measurement": "Effect on local cerebral glucose metabolism rate", "setting": "[13]", "result": "↓"}, {"measurement": "Local glucose metabolism rate", "setting": "[13]", "result": "70.6 ± 4.7", "unit": "µmol/100 g/min"}, {"measurement": "Effect on local cerebral glucose metabolism rate", "setting": "Hypothalamaus, focal side, 200 mg/kg i.v.", "result": "↓"}, {"measurement": "Effect on local cerebral glucose metabolism rate", "setting": "Hypothalamaus, non-focal side, 50 mg/kg i.v.", "result": "→"}, {"measurement": "Effect on local cerebral glucose metabolism rate", "setting": "[14]", "result": "→↓"}, {"measurement": "Local glucose metabolism rate", "setting": "[14]", "result": "58.5 ± 4.5", "unit": "µmol/100 g/min"}, {"measurement": "Effect on local cerebral glucose metabolism rate", "setting": "Hypothalamaus, non-focal side, 200 mg/kg i.v.", "result": "↓"}, {"measurement": "Effect on local cerebral glucose metabolism rate", "setting": "Occipital lobe cortex, focal side, 50 mg/kg i.v.", "result": "→"}, {"measurement": "Effect on local cerebral glucose metabolism rate", "setting": "[15]", "result": "→↓"}, {"measurement": "Local glucose metabolism rate", "setting": "[15]", "result": "139 ± 5.6", "unit": "µmol/100 g/min"}]}
